Assay results published in ChEMBL document CHEMBL4020814, “Synthesis, Binding Mode, and Antihyperglycemic Activity of Potent and Selective (5-Imidazol-2-yl-4-phenylpyrimidin-2-yl)[2-(2-pyridylamino)ethyl]amine Inhibitors of Glycogen Synthase Kinase 3” (J Med Chem, 2017).

What was measured:
[1] = Inhibition of GSK3 expressed in CHO-IR cells expressing human insulin receptor assessed as glycogen synthase activation after 30 mins by filter paper assay; type: cell-based, Cavia porcellus
[2] = Inhibition of human GSK3 using biotin-CREB peptide substrate after 1 hr by scintillation counting method

For `Nc1nc(NCCNc2ncc(CN3CCOCC3)c(-c3ccc(Cl)cc3Cl)n2)ccc1[N+](=O)[O-]`, the EC50 [1] was 840 nM and the IC50 [2] was 17 nM.
With `O=[N+]([O-])c1ccc(NCCNc2ncc(-n3ccnc3)c(-c3ccc(N4CCNCC4)cc3)n2)nc1` the IC50 [2] was 166 nM.
In the case of `Nc1nc(NCCNc2ncc(N3CCCC3=O)c(-c3ccc(Cl)cc3Cl)n2)ccc1[N+](=O)[O-]`, the EC50 [1] is reported as 1580 nM and the IC50 [2] is reported as 6 nM.
Work on `CCOC(=O)c1cnc(NCCNc2ccc([N+](=O)[O-])cn2)nc1-c1ccc(C#N)cc1` yielded an EC50 [1] of 2200 nM and an IC50 [2] of 52 nM.
`Cc1ccc(-c2nc(NCCNc3ccc([N+](=O)[O-])cn3)ncc2-n2ccnc2)cc1` showed an EC50 [1] of 300 nM and an IC50 [2] of 34 nM.
`N#Cc1ccnc(NCCNc2ncc(-n3ccnc3)c(-c3ccc(Cl)cc3Cl)n2)c1` gave an IC50 [2] of 200 nM.
For `CN(C)CCNC(=O)c1cnc(NCCNc2ccc([N+](=O)[O-])cn2)nc1-c1ccc(C#N)cc1`, the EC50 [1] was > 10000 nM and the IC50 [2] was 71 nM.
Molecule `O=[N+]([O-])c1ccc(NCCNc2ncc(-n3ccnc3)c(-c3ccc(F)cc3F)n2)nc1` has an EC50 [1] of 900 nM and an IC50 [2] of 31 nM.
In the case of `O=[N+]([O-])c1ccc(NCCN(CCN2CCOCC2)c2ncc(-n3ccnc3)c(-c3ccc(Cl)cc3Cl)n2)nc1`, the EC50 [1] is reported as 280 nM and the IC50 [2] is reported as 15 nM.
In the case of `Nc1nc(NCCNc2ncc(-n3cccc(C(F)(F)F)c3=O)c(-c3ccc(Cl)cc3Cl)n2)ccc1[N+](=O)[O-]`, the EC50 [1] is reported as 40 nM and the IC50 [2] is reported as 4 nM.
In the case of `Cc1cc(NCCNc2ncc(-n3ccnc3)c(-c3ccc(Cl)cc3Cl)n2)nc(N)n1`, the IC50 [2] is reported as > 10000 nM.
For `O=[N+]([O-])c1ccc(NCCNc2ncc(-n3ccnc3)c(-c3ccccc3)n2)nc1`, the EC50 [1] was 23900 nM and the IC50 [2] was 197 nM.
Work on `Cc1ccc(-c2nc(NCCNc3ccc([N+](=O)[O-])cn3)ncc2-n2ccnc2)c(C)c1` yielded an EC50 [1] of 4200 nM and an IC50 [2] of 38 nM.
`O=[N+]([O-])c1ccc(NCCNc2ncc(-n3ccnc3)c(-c3ccc(Cl)cc3)n2)nc1` showed an EC50 [1] of 1200 nM and an IC50 [2] of 53 nM.
`COc1ccc(-c2nc(NCCNc3ccc([N+](=O)[O-])cn3)ncc2-n2ccnc2)cc1` showed an EC50 [1] of 2100 nM and an IC50 [2] of 68 nM.
With `Nc1nc(NCCNc2ncc(-c3ccccn3)c(-c3ccc(Cl)cc3Cl)n2)ccc1[N+](=O)[O-]` the EC50 [1] was 10 nM and the IC50 [2] was 7 nM.
`N#Cc1ccc(-c2nc(NCCNc3ccc([N+](=O)[O-])cn3)ncc2C(=O)N2CCOCC2)cc1` gave an IC50 [2] of 161 nM.
In the case of `Cc1cc(NCCNc2ncc(-n3ccnc3)c(-c3ccc(Cl)cc3Cl)n2)n2ncnc2n1`, the EC50 [1] is reported as > 10000 nM and the IC50 [2] is reported as 108 nM.
In the case of `N#Cc1ccc(-c2nc(NCCNc3ccc([N+](=O)[O-])cn3)ncc2C(=O)NCCN)cc1`, the IC50 [2] is reported as 153 nM.
In the case of `Clc1ccc(-c2nc(NCCNc3nc4ccc(Cl)cc4s3)ncc2-n2ccnc2)c(Cl)c1`, the EC50 [1] is reported as 12700 nM and the IC50 [2] is reported as 527 nM.
For `O=[N+]([O-])c1cnc(NCCNc2ncc(-n3ccnc3)c(-c3ccc(Cl)cc3Cl)n2)s1`, the EC50 [1] was > 10000 nM and the IC50 [2] was 24 nM.
`Cc1noc(-c2cnc(NCCNc3ccc([N+](=O)[O-])cn3)nc2-c2ccc(C#N)cc2)n1` gave an EC50 [1] of 1500 nM and an IC50 [2] of 33 nM.
Molecule `CN1CCN(C)C(CN(CCNc2ccc([N+](=O)[O-])cn2)c2ncc(-n3ccnc3)c(-c3ccc(Cl)cc3Cl)n2)C1` (centres undefined) has an IC50 [2] of 121 nM.
`O=[N+]([O-])c1ccc(NCCNc2ncc(-n3ccnc3)c(-c3ccc(-n4ccnc4)cc3)n2)nc1` gave an IC50 [2] of 124 nM.
In the case of `CNC(=O)c1cnc(NCCNc2ccc([N+](=O)[O-])cn2)nc1-c1ccc(C#N)cc1`, the EC50 [1] is reported as > 10000 nM and the IC50 [2] is reported as 33 nM.
`CCOC(=O)C1=C(CC)N=C(NCCNc2ccc([N+](=O)[O-])cn2)NC1c1ccc(C(N)=O)cc1` (centres undefined) gave an IC50 [2] of 3400 nM.
In the case of `O=[N+]([O-])c1ccc(NCCNc2ncc(-n3ccnc3)c(-c3ccc(Cl)cc3Cl)n2)nc1O`, the IC50 [2] is reported as 1000 nM.
`Cc1nc(-c2cnc(NCCNc3ccc([N+](=O)[O-])c(N)n3)nc2-c2ccc(Cl)cc2Cl)[nH]c1C` gave an EC50 [1] of 440 nM and an IC50 [2] of 3 nM.
`CN(C)CCOC(=O)c1cnc(NCCNc2ccc([N+](=O)[O-])cn2)nc1-c1ccc(C#N)cc1` showed an EC50 [1] of 3400 nM and an IC50 [2] of 50 nM.
`COc1ccc(-c2nc(NCCNc3ccc([N+](=O)[O-])cn3)ncc2-n2ccnc2)c(OC)c1` gave an EC50 [1] of 1500 nM and an IC50 [2] of 27 nM.
For `CCOC(=O)c1c(-c2ccc(C(N)=O)cc2)nc(NCCNc2ccc([N+](=O)[O-])cn2)nc1-c1ccc([N+](=O)[O-])cc1`, the EC50 [1] was 18000 nM and the IC50 [2] was 150 nM.
For `COCCN(CCNc1ccc([N+](=O)[O-])cn1)c1ncc(-n2ccnc2)c(-c2ccc(Cl)cc2Cl)n1`, the IC50 [2] was 175 nM.
Molecule `O=[N+]([O-])c1ccc(NCCNc2ncc(-n3ccnc3)c(-c3ccc(F)cc3)n2)nc1` has an IC50 [2] of 200 nM.
`CCOC(=O)C1=C(c2ccncc2)N=C(NCCNc2ccc([N+](=O)[O-])cn2)NC1c1ccc(C(N)=O)cc1` (centres undefined) gave an IC50 [2] of 3700 nM.
`COc1cccc(-c2nc(NCCNc3ccc([N+](=O)[O-])cn3)ncc2-n2ccnc2)c1` showed an IC50 [2] of 347 nM.
Molecule `CC(C)(C)OC(=O)N1CCN(c2ccc(-c3nc(NCCNc4ccc([N+](=O)[O-])cn4)ncc3-n3ccnc3)cc2)CC1` has an IC50 [2] of 1930 nM.
`Cc1cc([N+](=O)[O-])cnc1NCCNc1ncc(-n2ccnc2)c(-c2ccc(Cl)cc2Cl)n1` gave an IC50 [2] of 3370 nM.
Molecule `CCOC(=O)c1ccc(NCCNc2ncc(-n3ccnc3)c(-c3ccc(Cl)cc3Cl)n2)nc1` has an IC50 [2] of 3650 nM.
`CN1CCN(c2ccc(-c3nc(NCCNc4ccc([N+](=O)[O-])cn4)ncc3-n3ccnc3)cc2)CC1` showed an IC50 [2] of 1120 nM.
Molecule `FC(F)(F)c1ccnc(NCCNc2ncc(-n3ccnc3)c(-c3ccc(Cl)cc3Cl)n2)n1` has an IC50 [2] of 381 nM.
`O=[N+]([O-])c1ccc(NCCNc2ncc(-n3ccnc3)c(-c3ccc(Cl)c(Cl)c3)n2)nc1` showed an IC50 [2] of 646 nM.
With `O=[N+]([O-])c1ccc(NCCN(CCc2ccccn2)c2ncc(-n3ccnc3)c(-c3ccc(Cl)cc3Cl)n2)nc1` the IC50 [2] was 113 nM.
`N#Cc1ccc(-c2nc(NCCNc3ccc([N+](=O)[O-])cn3)ncc2C(=O)NCc2ccccc2)cc1` showed an IC50 [2] of 75 nM.
With `CC(=O)c1ccc(NCCNc2ncc(-n3ccnc3)c(-c3ccc(Cl)cc3Cl)n2)nc1` the IC50 [2] was 5950 nM.
With `Clc1ccc(-c2nc(NCCNc3ncccn3)ncc2-n2ccnc2)c(Cl)c1` the IC50 [2] was > 10000 nM.
For `N#Cc1ccc(-c2nc(NCCNc3ccc([N+](=O)[O-])cn3)ncc2C(=O)NCc2ccncc2)cc1`, the IC50 [2] was 47 nM.
Molecule `N#Cc1ccc(-c2nc(NCCNc3ccc([N+](=O)[O-])cn3)ncc2C(=O)OCc2ccccc2)cc1` has an IC50 [2] of 190 nM.
Work on `O=[N+]([O-])c1ccc(NCCNc2ncc(-n3ccnc3)c(-c3ccc(N4CCCCC4)cc3)n2)nc1` yielded an IC50 [2] of 777 nM.
With `CCOC(=O)C1=C(c2ccc([N+](=O)[O-])cc2)N=C(NCCNc2ccc([N+](=O)[O-])cn2)NC1c1ccc(C(N)=O)cc1` (centres undefined) the IC50 [2] was 2000 nM.
With `CCOC(=O)c1c(-c2ccncc2)nc(NCCNc2ccc([N+](=O)[O-])cn2)nc1-c1ccc(C(N)=O)cc1` the IC50 [2] was 140 nM.
Molecule `CC(C)(C)OC(=O)c1cnc(NCCNc2ccc([N+](=O)[O-])cn2)nc1-c1ccc(C#N)cc1` has an IC50 [2] of 25 nM.
Work on `COc1ccccc1-c1nc(NCCNc2ccc([N+](=O)[O-])cn2)ncc1-n1ccnc1` yielded an IC50 [2] of 884 nM.
Work on `CNc1nc(NCCNc2ncc(-n3ccnc3)c(-c3ccc(Cl)cc3Cl)n2)ccc1[N+](=O)[O-]` yielded an IC50 [2] of 576 nM.
With `O=[N+]([O-])c1ccc(OCCNc2ncc(-n3ccnc3)c(-c3ccc(Cl)cc3Cl)n2)nc1` the IC50 [2] was 2830 nM.
`COc1nc(NCCNc2ncc(-n3ccnc3)c(-c3ccc(Cl)cc3Cl)n2)ccc1[N+](=O)[O-]` showed an IC50 [2] of 81 nM.
With `COc1ccc(OC)c(-c2nc(NCCNc3ccc([N+](=O)[O-])cn3)ncc2-n2ccnc2)c1` the IC50 [2] was 4870 nM.
In the case of `CN(C)c1nc(NCCNc2ncc(-n3ccnc3)c(-c3ccc(Cl)cc3Cl)n2)ccc1[N+](=O)[O-]`, the IC50 [2] is reported as 1000 nM.
